For six molecules, IC50 results are on record in patent US12202823B2 (QUIMATRYX, S.L., priority 2019, dated 2025).

One assay deals with hHDAC4 (Homo sapiens (Human), UniProt P56524). Kind of assay: hHDAC4 inhibition protocol. The following applies: read-out: IC50 (nM) of enzyme activity HDAC4; selectivity table.
The next assay deals with hHDAC6 (Homo sapiens (Human), UniProt Q9UBN7). Kind of assay: HDAC6 inhibition protocol. As to conditions: read-out: IC50 (nM) of enzyme activity HDAC6.
A further assay deals with hHDAC2 (Homo sapiens (Human), UniProt Q92769). Kind of assay: hHDAC2 inhibition protocol. The following applies: read-out: IC50 (nM) of enzyme activity HDAC2; selectivity table.
Chain of hHDAC2 (Q92769 whole entry): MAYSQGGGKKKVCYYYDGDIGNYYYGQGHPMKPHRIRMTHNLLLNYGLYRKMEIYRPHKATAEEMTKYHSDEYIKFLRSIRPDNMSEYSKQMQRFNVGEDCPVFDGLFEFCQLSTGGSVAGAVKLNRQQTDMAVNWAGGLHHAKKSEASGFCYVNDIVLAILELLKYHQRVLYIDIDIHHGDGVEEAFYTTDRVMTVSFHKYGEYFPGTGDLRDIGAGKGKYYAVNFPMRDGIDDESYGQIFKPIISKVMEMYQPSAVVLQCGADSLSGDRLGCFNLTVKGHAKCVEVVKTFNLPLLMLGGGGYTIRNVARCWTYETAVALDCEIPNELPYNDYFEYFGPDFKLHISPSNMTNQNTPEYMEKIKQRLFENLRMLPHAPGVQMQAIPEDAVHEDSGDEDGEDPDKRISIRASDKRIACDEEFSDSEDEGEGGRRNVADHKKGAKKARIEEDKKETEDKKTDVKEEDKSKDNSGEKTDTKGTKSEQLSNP
The target in the next assay is hHDAC5 (Homo sapiens (Human), UniProt Q9UQL6). Kind of assay: hHDAC5 inhibition protocol. As to conditions: read-out: IC50 (nM) of enzyme activity HDAC5; selectivity table.
Chain of hHDAC5 (Q9UQL6 whole entry): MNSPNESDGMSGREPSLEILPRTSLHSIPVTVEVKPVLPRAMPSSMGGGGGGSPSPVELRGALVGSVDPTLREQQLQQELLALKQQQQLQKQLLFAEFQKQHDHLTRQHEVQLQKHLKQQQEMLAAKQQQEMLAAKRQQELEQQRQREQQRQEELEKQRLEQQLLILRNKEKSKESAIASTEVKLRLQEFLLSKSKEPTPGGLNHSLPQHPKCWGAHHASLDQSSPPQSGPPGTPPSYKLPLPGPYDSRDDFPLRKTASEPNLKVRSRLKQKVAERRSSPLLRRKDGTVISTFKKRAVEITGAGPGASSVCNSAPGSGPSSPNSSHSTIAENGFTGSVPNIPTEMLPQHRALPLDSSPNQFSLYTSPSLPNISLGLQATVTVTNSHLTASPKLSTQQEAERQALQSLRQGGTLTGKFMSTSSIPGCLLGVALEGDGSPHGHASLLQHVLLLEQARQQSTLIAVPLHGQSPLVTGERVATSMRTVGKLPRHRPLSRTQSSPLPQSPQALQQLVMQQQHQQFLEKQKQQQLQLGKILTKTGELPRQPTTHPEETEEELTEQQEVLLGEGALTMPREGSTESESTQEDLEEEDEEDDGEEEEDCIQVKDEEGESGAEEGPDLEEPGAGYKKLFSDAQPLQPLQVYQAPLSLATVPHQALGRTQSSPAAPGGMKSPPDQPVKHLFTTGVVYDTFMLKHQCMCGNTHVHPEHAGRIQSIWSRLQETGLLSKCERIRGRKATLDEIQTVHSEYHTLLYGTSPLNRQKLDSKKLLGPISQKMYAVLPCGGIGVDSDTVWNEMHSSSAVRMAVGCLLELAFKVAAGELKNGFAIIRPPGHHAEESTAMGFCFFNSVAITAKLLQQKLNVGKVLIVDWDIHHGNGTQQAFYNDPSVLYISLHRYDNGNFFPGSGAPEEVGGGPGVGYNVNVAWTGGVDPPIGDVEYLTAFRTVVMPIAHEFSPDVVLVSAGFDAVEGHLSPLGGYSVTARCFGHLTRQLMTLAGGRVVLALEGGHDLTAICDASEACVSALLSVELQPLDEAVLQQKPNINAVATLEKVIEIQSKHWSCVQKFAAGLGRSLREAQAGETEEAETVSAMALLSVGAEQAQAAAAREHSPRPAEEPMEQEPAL
A further assay concerns the target hHDAC9 (Homo sapiens (Human), UniProt Q9UKV0). Kind of assay: hHDAC9 inhibition protocol. The following applies: read-out: IC50 (nM) of enzyme activity HDAC9; selectivity table.
In the next assay the target is hHDAC1 (Homo sapiens (Human), UniProt Q13547). Description: hHDAC1 inhibition protocol. As to conditions: read-out: IC50 (nM) of enzyme activity HDAC1; selectivity table.
The next assay concerns the target hHDAC8 (Homo sapiens (Human), UniProt Q9BY41). Kind of assay: hHDAC8 inhibition protocol. The following applies: read-out: IC50 (nM) of enzyme activity HDAC8; selectivity table.
The target in another assay is hHDAC7 (Homo sapiens (Human), UniProt Q8WUI4). Description: hHDAC7 inhibition protocol. The following applies: read-out: IC50 (nM) of enzyme activity HDAC7; selectivity table.
Chain of hHDAC7 (Q8WUI4 whole entry): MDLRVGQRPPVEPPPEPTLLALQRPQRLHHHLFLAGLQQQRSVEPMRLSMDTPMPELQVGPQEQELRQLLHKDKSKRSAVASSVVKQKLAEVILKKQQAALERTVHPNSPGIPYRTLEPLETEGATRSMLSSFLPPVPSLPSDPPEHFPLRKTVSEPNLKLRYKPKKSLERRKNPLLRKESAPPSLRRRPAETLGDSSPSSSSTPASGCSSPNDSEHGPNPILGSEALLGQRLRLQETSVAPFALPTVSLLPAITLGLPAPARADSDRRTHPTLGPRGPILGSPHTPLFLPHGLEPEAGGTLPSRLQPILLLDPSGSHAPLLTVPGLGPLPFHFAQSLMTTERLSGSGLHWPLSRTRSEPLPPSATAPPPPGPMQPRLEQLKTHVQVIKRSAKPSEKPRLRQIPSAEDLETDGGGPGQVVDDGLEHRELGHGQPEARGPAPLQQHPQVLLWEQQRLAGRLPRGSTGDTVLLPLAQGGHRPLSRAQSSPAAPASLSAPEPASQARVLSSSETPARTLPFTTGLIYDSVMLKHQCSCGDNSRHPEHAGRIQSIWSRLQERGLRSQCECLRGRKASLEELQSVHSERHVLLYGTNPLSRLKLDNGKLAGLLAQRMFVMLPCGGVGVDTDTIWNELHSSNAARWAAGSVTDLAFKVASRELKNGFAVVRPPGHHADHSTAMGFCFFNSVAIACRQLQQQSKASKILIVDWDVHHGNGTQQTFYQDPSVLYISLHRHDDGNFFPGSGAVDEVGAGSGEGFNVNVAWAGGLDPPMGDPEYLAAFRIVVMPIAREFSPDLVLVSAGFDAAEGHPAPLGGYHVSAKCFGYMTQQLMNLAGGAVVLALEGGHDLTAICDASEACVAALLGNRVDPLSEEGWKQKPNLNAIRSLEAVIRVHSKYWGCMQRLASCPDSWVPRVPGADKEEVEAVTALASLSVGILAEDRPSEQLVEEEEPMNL
For the next assay, the target named is hHDAC3 (Homo sapiens (Human), UniProt O15379). Description: hHDAC3 inhibition protocol. The following applies: read-out: IC50 (nM) of enzyme activity HDAC3; selectivity table.
Chain of hHDAC3 (O15379 whole entry): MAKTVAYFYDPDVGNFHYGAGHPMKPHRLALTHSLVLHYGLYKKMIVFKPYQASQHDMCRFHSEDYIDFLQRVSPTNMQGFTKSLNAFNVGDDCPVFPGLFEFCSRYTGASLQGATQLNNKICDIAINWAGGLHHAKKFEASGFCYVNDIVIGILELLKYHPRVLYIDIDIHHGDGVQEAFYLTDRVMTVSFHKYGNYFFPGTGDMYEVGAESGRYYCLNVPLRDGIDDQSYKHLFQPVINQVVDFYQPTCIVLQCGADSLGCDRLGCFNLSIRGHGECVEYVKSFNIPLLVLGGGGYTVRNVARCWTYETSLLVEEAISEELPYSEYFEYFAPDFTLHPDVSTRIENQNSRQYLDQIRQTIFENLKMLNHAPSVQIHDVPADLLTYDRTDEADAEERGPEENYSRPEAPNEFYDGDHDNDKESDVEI
Chain of hHDAC3 (Q9Y618 395-489 partner): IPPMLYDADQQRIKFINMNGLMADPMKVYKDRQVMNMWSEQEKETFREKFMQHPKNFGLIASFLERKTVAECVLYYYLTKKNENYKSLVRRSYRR
Another assay has as its target hHDAC10 (Homo sapiens (Human), UniProt Q969S8). Kind of assay: HDAC10 inhibition protocol. The following applies: read-out: IC50 (nM) of enzyme activity HDAC10; selectivity table.
Setting [1] is: hHDAC6 1.20 nM, Acetylated Peptide A 2 μM, 1 hour at RT.

Like-named read-outs stand apart in the source and are kept apart here.

Chain of hHDAC9 (Q9UKV0 whole entry): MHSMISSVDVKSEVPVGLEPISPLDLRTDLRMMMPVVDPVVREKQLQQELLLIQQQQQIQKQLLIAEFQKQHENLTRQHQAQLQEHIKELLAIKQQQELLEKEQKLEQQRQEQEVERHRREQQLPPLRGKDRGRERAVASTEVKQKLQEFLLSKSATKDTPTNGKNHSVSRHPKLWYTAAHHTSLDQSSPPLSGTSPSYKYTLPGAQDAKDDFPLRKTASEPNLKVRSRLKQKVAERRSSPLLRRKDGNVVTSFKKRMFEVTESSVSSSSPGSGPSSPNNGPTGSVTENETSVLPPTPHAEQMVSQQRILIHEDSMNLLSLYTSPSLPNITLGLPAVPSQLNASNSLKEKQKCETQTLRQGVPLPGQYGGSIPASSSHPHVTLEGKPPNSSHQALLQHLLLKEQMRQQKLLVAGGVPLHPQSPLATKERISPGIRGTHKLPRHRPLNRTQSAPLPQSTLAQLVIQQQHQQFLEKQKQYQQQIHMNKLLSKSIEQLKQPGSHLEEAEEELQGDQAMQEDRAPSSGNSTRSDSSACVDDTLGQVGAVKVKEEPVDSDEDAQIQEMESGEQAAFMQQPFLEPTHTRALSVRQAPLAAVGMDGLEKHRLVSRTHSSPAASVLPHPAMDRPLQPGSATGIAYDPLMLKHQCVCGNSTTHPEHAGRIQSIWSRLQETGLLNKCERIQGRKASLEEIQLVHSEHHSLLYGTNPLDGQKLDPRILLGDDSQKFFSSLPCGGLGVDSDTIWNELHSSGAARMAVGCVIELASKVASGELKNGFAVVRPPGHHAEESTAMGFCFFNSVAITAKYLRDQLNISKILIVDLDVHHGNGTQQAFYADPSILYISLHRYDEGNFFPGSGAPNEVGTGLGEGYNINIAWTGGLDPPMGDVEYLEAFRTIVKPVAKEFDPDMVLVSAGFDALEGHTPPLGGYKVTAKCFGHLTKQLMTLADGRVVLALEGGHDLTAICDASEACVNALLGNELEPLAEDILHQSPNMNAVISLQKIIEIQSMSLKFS
Chain of hHDAC10 (Q969S8 whole entry): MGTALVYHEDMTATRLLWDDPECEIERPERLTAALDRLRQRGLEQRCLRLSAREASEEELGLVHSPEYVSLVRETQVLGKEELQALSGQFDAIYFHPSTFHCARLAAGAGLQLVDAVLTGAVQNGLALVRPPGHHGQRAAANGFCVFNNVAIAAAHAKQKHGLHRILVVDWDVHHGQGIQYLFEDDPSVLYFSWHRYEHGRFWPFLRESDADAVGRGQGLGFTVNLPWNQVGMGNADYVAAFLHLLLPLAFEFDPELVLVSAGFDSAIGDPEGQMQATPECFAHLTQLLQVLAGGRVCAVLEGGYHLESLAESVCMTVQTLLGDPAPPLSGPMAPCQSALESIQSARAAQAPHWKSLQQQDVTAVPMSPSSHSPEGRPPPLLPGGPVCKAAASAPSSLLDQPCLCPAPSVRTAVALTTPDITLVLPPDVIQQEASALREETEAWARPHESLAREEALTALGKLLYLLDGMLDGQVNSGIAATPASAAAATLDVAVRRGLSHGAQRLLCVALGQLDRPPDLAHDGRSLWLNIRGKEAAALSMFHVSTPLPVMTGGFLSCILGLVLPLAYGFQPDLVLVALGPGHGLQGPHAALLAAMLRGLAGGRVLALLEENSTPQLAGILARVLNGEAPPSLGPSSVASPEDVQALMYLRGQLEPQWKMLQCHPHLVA
Description for hHDAC10: (§1) After enzymatic reactions, reaction was stopped by adding 5 μl of 10 μM solution of a known inhibitor. The fluorescent signal of substrate and product was measured by means of microfluidics mobility assay in a EZ Reader II equipment. The percentage of conversion of substrate into product was calculated by the equipment software based on the area of the peaks.
(§2) The percentage of conversion data were analyzed using the computer software, Graphpad Prism. In the absence of the compound, the conversion (Ct) in each data set was defined as 100% activity. In the absence of HDAC, the conversion (Cb) in each data set was defined as 0% activity. The percent activity in the presence of each compound was calculated according to the following equation: % inhibition=(Ct−C)/(Ct−Cb), where C=the percentage of conversion in the presence of the compound.
(§3) The values of % inhibition versus a series of compound concentrations were then plotted using non-linear regression analysis of Sigmoidal dose-response curve generated with the equation Y=B+(T−B)/1+10((Log EC50−X)×Hill Slope), where Y=percent inhibition, B=minimum percent inhibition, T=maximum percent inhibition, X=logarithm of compound and Hill Slope=slope factor or Hill coefficient. The IC50 value was determined by the concentration causing a half-maximal percent activity.
The buffer assay used in the inhibition hHDAC10 assay is: Hepes 50 mM, KCl 100 mM, Tween 20 0.001%, BSA 0.01%; pH=7.4.
Description for hHDAC2: as §1, §2, §3
The buffer assay used in the inhibition hHDAC2 assay is: Hepes 50 mM, KCl 100 mM, Tween 20 0.001%, BSA 0.01%; pH=7.4.
Description for hHDAC3: as §1, §2, §3
The buffer assay used in the inhibition hHDAC3 assay is: Hepes 50 mM, KCl 100 mM, Tween 20 0.001%, BSA 0.01%; pH=7.4.
Description for hHDAC4: as §1, §2, §3
The buffer assay used in the inhibition hHDAC4 assay is: Hepes 50 mM, KCl 100 mM, Tween 20 0.001%, BSA 0.01%; pH=7.4.
Description for hHDAC5: as §1, §2, §3
The buffer assay used in the inhibition hHDAC5 assay is: Hepes 50 mM, KCl 100 mM, Tween 20 0.001%, BSA 0.01%; pH=7.4.
Description for hHDAC6: as §1, §2, §3
The buffer assay used in the inhibition hHDAC6 assay is: Hepes 50 mM, KCl 100 mM, Tween 20 0.001%, BSA 0.01%; pH=7.4.
Description for hHDAC7: The fluorescent signal of substrate and product was measured by means of microfluidics mobility assay in a EZ Reader II equipment. The percentage of conversion of substrate into product was calculated by the equipment software based on the area of the peaks.
as §2, §3
The buffer assay used in the inhibition hHDAC7 assay is: Hepes 50 mM, KCl 100 mM, Tween 20 0.001%, BSA 0.01%; pH=7.4.
Description for hHDAC8: as §1, §2, §3
The buffer assay used in the inhibition hHDAC8 assay is: Hepes 50 mM, KCl 100 mM, Tween 20 0.001%, BSA 0.01%; pH=7.4.
Description for hHDAC9: as §1, §2, §3
The buffer assay used in the inhibition hHDAC9 assay is: Hepes 50 mM, KCl 100 mM, Tween 20 0.001%, BSA 0.01%; pH=7.4.

For orientation: IC50 means the point on the concentration scale where inhibition reaches its midpoint. `FC(F)c1nnc(-c2ccc(Cn3cc4ccccc4n3)cc2)o1` [Example 7, 2-(4-((2H-indazol-2-yl)methyl)phenyl)-5-(difluoromethyl)-1,3,4-oxadiazole]: the IC50 at hHDAC4 was more than 10000 nM; at hHDAC6 (setting [1]), 365 nM; at hHDAC6 (selectivity table), 365 nM; on hHDAC2, more than 10000 nM; at hHDAC5, more than 10000 nM; on hHDAC9 it was more than 10000 nM. In addition, the IC50 at hHDAC1, on hHDAC8, at hHDAC7, at hHDAC3 and at hHDAC10 was more than 10000 nM throughout.

For `FC(F)c1nnc(-c2ccc(Cn3nnc4ccccc43)cc2)o1` [Example 11, 2-(4-((1H-benzo[d][1,2,3]triazol-1-yl)methyl)phenyl)-5-(difluoromethyl)-1,3,4-oxadiazole], the IC50 is more than 10000 nM at hHDAC4; 171 nM on hHDAC6 (setting [1]); 171 nM at hHDAC6 (selectivity table); more than 10000 nM at hHDAC2; more than 10000 nM on hHDAC5; more than 10000 nM at hHDAC9. Besides, the IC50 on hHDAC1, at hHDAC8, on hHDAC7, on hHDAC3 and at hHDAC10 was more than 10000 nM throughout.

Turning to `FC(F)c1nnc(-c2ccc(Cn3cnc4cc(Cl)c(Cl)cc43)nc2)o1` [Example 22, 2-(6-((5,6-dichloro-1H-benzo[d]imidazol-1-yl)methyl)pyridin-3-yl)-5-(difluoromethyl)-1,3,4-oxadiazole], the IC50 is 2400 nM on hHDAC4; 22.4 nM at hHDAC6 (setting [1]); 22.4 nM at hHDAC6 (selectivity table); more than 10000 nM at hHDAC2; more than 10000 nM on hHDAC5; 6520 nM on hHDAC9. Moreover, the half-inhibitory concentration (IC50) was more than 10000 nM on hHDAC1; more than 10000 nM at hHDAC8; 9400 nM at hHDAC7; more than 10000 nM on hHDAC3; more than 10000 nM at hHDAC10.

With `FC(F)c1nnc(-c2ccc(Cn3nnc4cc(Cl)c(Cl)cc43)nc2)o1` [Example 24, 2-(6-((5,6-dichloro-1H-benzo[d][1,2,3]triazol-1-yl)methyl)pyridin-3-yl)-5-(difluoromethyl)-1,3,4-oxadiazole], the IC50 at hHDAC4 was 8370 nM; at hHDAC6 (setting [1]) it was 29.5 nM; at hHDAC6 (selectivity table), 29.5 nM; on hHDAC2, more than 10000 nM; on hHDAC5 it was more than 10000 nM; on hHDAC9, 8620 nM. The concentration for half-maximal inhibition (IC50) on hHDAC1, on hHDAC8, at hHDAC7, at hHDAC3 and at hHDAC10 was more than 10000 nM each time.

For `FC(F)c1nnc(-c2ccc(Cn3nc4cc(Cl)c(Cl)cc4n3)nc2)o1` [Example 25, 2-(6-((5,6-dichloro-2H-benzo[d][1,2,3]triazol-2-yl)methyl)pyridin-3-yl)-5-(difluoromethyl)-1,3,4-oxadiazole], the IC50 on hHDAC4 is more than 10000 nM; on hHDAC6 (setting [1]), 29.8 nM; on hHDAC6 (selectivity table) it was 29.8 nM; at hHDAC2 it was more than 10000 nM; on hHDAC5, more than 10000 nM; at hHDAC9, more than 10000 nM. The IC50 at hHDAC1, on hHDAC8, at hHDAC7, at hHDAC3 and at hHDAC10 was more than 10000 nM throughout.

As to `FC(F)c1nnc(-c2ccc(Cn3cc(-c4ccccc4)nn3)cc2)o1` [Example 27, 2-(difluoromethyl)-5-(4-((4-phenyl-1H-1,2,3-triazol-1-yl)methyl)phenyl)-1,3,4-oxadiazole], the IC50 at hHDAC4 is more than 10000 nM; on hHDAC6 (setting [1]), 85.3 nM; on hHDAC6 (selectivity table) it was 85.3 nM; on hHDAC2, more than 10000 nM; on hHDAC5, more than 10000 nM; on hHDAC9 it was more than 10000 nM. The IC50 on hHDAC1, on hHDAC8, at hHDAC7, on hHDAC3 and at hHDAC10 was more than 10000 nM in each case.
